We go through 1 compound from patent US20080009546A1 (Chevron U.S.A. Inc., priority 2005, published 2008).

For data set [1], the system named is C57/BL6 male mice. In words: Rotarod test (balance and coordination, side effects). Conditions: mouse, in vivo. As for the experimental part: The side effects of the compounds was primarily evaluated using the rotarod test, which mainly assesses the balancing and coordination of mice. The comparisons were made on fall time of the mice between the first measure (pre-treatment) and second measure taken 20 min after the drug/vehicle injection in the same group (paired t-test). […] Comparisons of the rotatod fall times after drug/vehicle dosing were made between drug treatment and control groups (unpaired t-test).

Data set [2] relates to C57/BL6 male mice.

In the case of `CC12CC3CC(C)(C1)CC(N)(C3)C2` [memantine, 1-amino-3,5-dimethyladamantane, reference compound], the “rotarod fall time, pre-treatment vs 20 min after injection” value in data set [1] was “loss of performance”. For the same compound, in data set [1] (ip, 30 mg/kg), the “hyperactivity (side effect)” value is “observed” and the “rotarod performance after dosing vs. control” value is “statistically significant decreases in rotarod performance”. In data set [2] (10 mg/kg i.p.), this compound gave an Extension rate of 0.67 and a Mortality rate of 0. Besides, in data set [2] (10 mg/kg i.p., 6 mice), the “# of deaths” value is listed as 0 and the “# of extensions” value stood at 4. Further, in data set [2] (low dose 10 mg/kg i.p., mice), the MES-induced death result is reported as “protected all mice from death”.
